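Growth conditions: 96-well plates. Treatment: test compound, 48 hours, 5 concentrations. Analysis: linear interpolation between bracketing concentrations; unreached endpoints set to highest concentration. GI50 is the concentration that inhibits growth by half.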 Active and inactive are the calls of the source. Rule as the data show it: active = GI50 up to about 1.1 µM and inactive = higher.
Columns and labels:
Assay in all cases: inhibition of tumour cell growth, NCI panel, 48 h
A498 = test system: A498
SNB-75 = test system: SNB-75
HL-60 = test system: HL-60
Hs-578T = test system: Hs-578T
MOLT-4 = test system: MOLT-4
NCI/ADR-RES = test system: NCI/ADR-RES
SR = test system: SR
OVCAR-3 = test system: OVCAR-3
HCT-15 = test system: HCT-15
UACC-62 = test system: UACC-62
A549 = test system: A549
MDA-MB-231 = test system: MDA-MB-231
NCI-H226 = test system: NCI-H226
SF-268 = test system: SF-268
SF-295 = test system: SF-295
SK-MEL-28 = test system: SK-MEL-28
CCRF-CEM = test system: CCRF-CEM
U-251 = test system: U-251
MDA-MB-435 = test system: MDA-MB-435
DU-145 = test system: DU-145

Row | SMILES | GI50 (A498) | GI50 (SNB-75) | GI50 (HL-60) | GI50 (Hs-578T) | GI50 (MOLT-4) | GI50 (NCI/ADR-RES) | GI50 (SR) | GI50 (OVCAR-3) | GI50 (HCT-15) [µM] | GI50 (UACC-62) | GI50 (A549) | GI50 (MDA-MB-231) | GI50 (NCI-H226) | GI50 (SF-268) | GI50 (SF-295) | GI50 (SK-MEL-28) | GI50 (CCRF-CEM) | GI50 (U-251) | GI50 (MDA-MB-435) | GI50 (DU-145)
1 | COC(=O)C(=O)C(C(=O)C(=O)Nc1ccccc1C(C)=O)c1nc2ccc(C(=O)c3ccccc3)cc2nc1O (stereo not given) | > 100 µM (inactive) | 32.7 µM (inactive) | > 100 µM (inactive) | 47.2 µM (inactive) | 56.2 µM (inactive) | 30.6 µM (inactive) | 3.77 µM (inactive) | 73.6 µM (inactive) | 74 | > 100 µM (inactive) | > 100 µM (inactive) | 78 µM (inactive) | 98.2 µM (inactive) | 68.2 µM (inactive) | 45.1 µM (inactive) |  |  |  |  | 
2 | S=C1Nc2ccccc2SC1c1ccccc1 (stereo not given) |  | 23.6 µM (inactive) | 5.22 µM (inactive) | 19.9 µM (inactive) | > 100 µM (inactive) | 56.1 µM (inactive) | 30.2 µM (inactive) | 30.5 µM (inactive) | > 100 | > 100 µM (inactive) | > 100 µM (inactive) | 66.1 µM (inactive) | 28.6 µM (inactive) | 30.3 µM (inactive) | 16.4 µM (inactive) | > 100 µM (inactive) | 2.96 µM (inactive) | 47.1 µM (inactive) | > 100 µM (inactive) | > 100 µM (inactive)
3 | CCCCCCCCCCCCNC(=O)NCC(OCC)OCC | > 10 µM (inactive) | > 10 µM (inactive) |  | > 10 µM (inactive) | > 10 µM (inactive) |  | > 10 µM (inactive) |  | > 10 | > 10 µM (inactive) | > 10 µM (inactive) | > 10 µM (inactive) | > 10 µM (inactive) | > 10 µM (inactive) | > 10 µM (inactive) | > 10 µM (inactive) | > 10 µM (inactive) | > 10 µM (inactive) | > 10 µM (inactive) | > 10 µM (inactive)
4 | CC(C)CC1N=C(OCc2ccccc2)OC1=O (stereo not given) | > 100 µM (inactive) | > 100 µM (inactive) |  | > 100 µM (inactive) | > 100 µM (inactive) | > 100 µM (inactive) |  | > 100 µM (inactive) | > 100 |  | > 100 µM (inactive) | > 100 µM (inactive) | > 100 µM (inactive) | 2.79 µM (inactive) | > 100 µM (inactive) | > 100 µM (inactive) | > 100 µM (inactive) | > 100 µM (inactive) | > 100 µM (inactive) | > 100 µM (inactive)
5 | S=C(N1CCN(c2ccc(Cl)c(Cl)c2)CC1)N1CCN(c2ccc(Cl)c(Cl)c2)CC1 |  |  |  | 6.52 µM (inactive) | 6.18 µM (inactive) | 16.3 µM (inactive) | 1.36 µM (inactive) | 13.5 µM (inactive) | 15.4 | 15.5 µM (inactive) | 16.3 µM (inactive) | 9.08 µM (inactive) | 11.1 µM (inactive) | 14.4 µM (inactive) | 9.25 µM (inactive) | 14.7 µM (inactive) | 3.42 µM (inactive) | 14.7 µM (inactive) | 15.4 µM (inactive) | 12.4 µM (inactive)
6 | C[C@H]1ON2CCC[C@@H]2[C@@H]1C(=O)N1C2CC3CCC2(CS1(=O)=O)C3(C)C (stereo not given in full) | > 100 µM (inactive) | > 100 µM (inactive) | 0.295 µM (active) | > 100 µM (inactive) |  | > 100 µM (inactive) |  | > 100 µM (inactive) | > 100 | > 100 µM (inactive) | > 100 µM (inactive) | > 100 µM (inactive) | > 100 µM (inactive) | > 100 µM (inactive) | > 100 µM (inactive) | > 100 µM (inactive) | > 100 µM (inactive) | > 100 µM (inactive) | > 100 µM (inactive) | > 100 µM (inactive)
7 | O=C1CN(c2cccc(C(F)(F)F)c2)C(=O)CN1NCNN1CC(=O)N(c2cccc(C(F)(F)F)c2)CC1=O |  | > 100 µM (inactive) | > 100 µM (inactive) | > 100 µM (inactive) | > 100 µM (inactive) | > 100 µM (inactive) | > 100 µM (inactive) |  | > 100 |  | > 100 µM (inactive) | > 100 µM (inactive) |  | > 100 µM (inactive) | > 100 µM (inactive) | > 100 µM (inactive) | > 100 µM (inactive) | > 100 µM (inactive) | > 100 µM (inactive) | 
8 | CN(C)CCn1c(=O)oc2cc(C(=O)CN3CCOCC3)ccc21 |  | > 100 µM (inactive) | > 100 µM (inactive) | > 100 µM (inactive) | > 100 µM (inactive) | > 100 µM (inactive) | > 100 µM (inactive) | > 100 µM (inactive) | > 100 | > 100 µM (inactive) |  | > 100 µM (inactive) | > 100 µM (inactive) | > 100 µM (inactive) | > 100 µM (inactive) | > 100 µM (inactive) | > 100 µM (inactive) | > 100 µM (inactive) | > 100 µM (inactive) | > 100 µM (inactive)
9 | Cn1cc(C=C(C#N)C#N)c(=O)n(C)c1=O | > 100 µM (inactive) | > 100 µM (inactive) |  | > 100 µM (inactive) | 0.809 µM (active) | > 100 µM (inactive) |  | > 100 µM (inactive) | > 100 | > 100 µM (inactive) | > 100 µM (inactive) | > 100 µM (inactive) | > 100 µM (inactive) | > 100 µM (inactive) | > 100 µM (inactive) | > 100 µM (inactive) |  | > 100 µM (inactive) | > 100 µM (inactive) | > 100 µM (inactive)
10 | CCOC(=O)C(C)c1nc2cc(F)c(F)cc2[nH]c1=O (stereo not given) |  | > 100 µM (inactive) | > 100 µM (inactive) | > 100 µM (inactive) | > 100 µM (inactive) | > 100 µM (inactive) |  | > 100 µM (inactive) | > 100 | > 100 µM (inactive) | > 100 µM (inactive) | > 100 µM (inactive) | > 100 µM (inactive) | > 100 µM (inactive) | > 100 µM (inactive) | > 100 µM (inactive) | > 100 µM (inactive) | > 100 µM (inactive) | > 100 µM (inactive) | > 100 µM (inactive)
11 | C[n+]1c(-c2ccc(/C=N/NC(=S)N/N=C/c3ccc(-c4cn5ccsc5[n+]4C)cc3)cc2)cn2ccsc21 |  | > 100 µM (inactive) | > 100 µM (inactive) | > 100 µM (inactive) | > 100 µM (inactive) | > 100 µM (inactive) | > 100 µM (inactive) |  | > 100 |  | > 100 µM (inactive) | > 100 µM (inactive) |  | > 100 µM (inactive) | > 100 µM (inactive) | > 100 µM (inactive) | 36.6 µM (inactive) | > 100 µM (inactive) | 37.7 µM (inactive) | 
12 | CC(C)=C[C@@H]1C[C@H](C)c2c(O)cc(C)c3c2C1=C(C)C(=O)C3=O [ELISABATIN A] | 19.1 µM (inactive) | 17.4 µM (inactive) | 21.9 µM (inactive) | 19.6 µM (inactive) | 28.6 µM (inactive) | 18.9 µM (inactive) |  | 14.5 µM (inactive) | 13.6 | 14.7 µM (inactive) | 10.1 µM (inactive) | 15.6 µM (inactive) | 16.3 µM (inactive) | 15 µM (inactive) | 14.7 µM (inactive) | 15.5 µM (inactive) | 22.4 µM (inactive) | 13.8 µM (inactive) | 15.6 µM (inactive) | 15.3 µM (inactive)
